Results on one molecule are retold here after patent US20240130999A1, “Inhibition of SLC4A4 in the Treatment of Cancer” (VIB VZW, priority 2021, published 2024).

Structures are written as SMILES.

The test system of experiment [1] is KPC orthotopic tumors. As to the kind of experiment: DIDS treatment of mice bearing orthotopic KPC tumors (tumor growth, tumor weight). As to conditions: 15 mg/kg DIDS i.p. bi-daily for 10 days. It counts as in vivo, mouse. As to the method:
C57BL6/N were injected subcutaneously in the right flank with 1*10^6 Panc02 cells (pancreatic cancer cell line), 2*10^6 KP cells (lung cancer cell line), 0.8*10^6 KR158B cells (glioblastoma cell line), or 5*106 CMT-93 cells (colorectal cancer cell line) in 200 μl. Tumor growth was monitored by measuring the perpendicular diameters of tumors every other day and mice were sacrificed at a humane endpoint. FVB mice were injected orthotopically in the head of the pancreas with 10′000 KPC cells in 20 μl. Body weight was monitored and mice were sacrificed at a humane endpoint. Alternatively, FVB mice were injected subcutaneously in the right flank with 0,5*10^6 KPC cells in 200 μl. Tumor growth was monitored by measuring the perpendicular diameters of tumors every other day and mice were sacrificed at a humane endpoint. For immunotherapy treatment the mice were treated intraperitoneally (i.p.) with 10 mg/kg of either control IgG, anti-PD-1 (αPD-1), anti-PDL1 (αPDL1), or anti-CTLA-4 (αCTLA-4) antibodies (3×/week). For CD8 depletion mice were injected i.p. with an anti-CD8 antibody (10 mg/kg) 3 days before tumor inoculation and then 1 time per week. For in vivo slc4a4 inhibition, mice were treated with 15 mg/kg of 4,4′-Diisothiocyano-2,2′-stilbenedisulfonic acid (DIDS) i.p. bi-daily for a period of 10 days. […]

For experiment [2], the system named is KPC orthotopic tumors. As to the kind of experiment: FACS analysis of immune infiltrate in orthotopic KPC tumors of DIDS-treated mice. It counts as in vivo, mouse. To be noted: WT KPC orthotopic tumors, DIDS vs DMSO, flow cytometry. As to the method:
C57BL6/N were injected subcutaneously in the right flank with 1*10^6 Panc02 cells (pancreatic cancer cell line), 2*10^6 KP cells (lung cancer cell line), 0.8*10^6 KR158B cells (glioblastoma cell line), or 5*106 CMT-93 cells (colorectal cancer cell line) in 200 μl. Tumor growth was monitored by measuring the perpendicular diameters of tumors every other day and mice were sacrificed at a humane endpoint. FVB mice were injected orthotopically in the head of the pancreas with 10′000 KPC cells in 20 μl. Body weight was monitored and mice were sacrificed at a humane endpoint. Alternatively, FVB mice were injected subcutaneously in the right flank with 0,5*10^6 KPC cells in 200 μl. Tumor growth was monitored by measuring the perpendicular diameters of tumors every other day and mice were sacrificed at a humane endpoint. For immunotherapy treatment the mice were treated intraperitoneally (i.p.) with 10 mg/kg of either control IgG, anti-PD-1 (αPD-1), anti-PDL1 (αPDL1), or anti-CTLA-4 (αCTLA-4) antibodies (3×/week). For CD8 depletion mice were injected i.p. with an anti-CD8 antibody (10 mg/kg) 3 days before tumor inoculation and then 1 time per week. For in vivo slc4a4 inhibition, mice were treated with 15 mg/kg of 4,4′-Diisothiocyano-2,2′-stilbenedisulfonic acid (DIDS) i.p. bi-daily for a period of 10 days. Antibodies: Rat serum IgG (14131) (Sigma-Aldrich); Ultra-LEAF™ Purified PD-1anti-mouse (CD279) RMP1-14 (BioLegend); InVivoMAb anti-mouse CTLA-4 (CD152) (BioCell); InVivoMAb anti-mouse CD8α (BioCell); InVivoMab anti-mouse PD-L1 (B7-H1) (BioCell).
Mice were sacrifice by cervical dislocation and the tumor were harvested in cold PBS. Tumors were minced in alpha MEM (Lonza) containing 0,085 mg/ml Collagenase V (Sigma), 0,125 mg/ml Collagenase D (Roche) and 0,1 mg/ml Dispase (Gibco), and incubated in the same solution for 30 minutes at 37° C. The digested tissues were filtered using a 70-μm pore sized strainer and cells were centrifuged 5 minutes at 300 xg. Red blood cell lysis was performed by using a home-made red blood cell lysis buffer (150 mM NH4Cl, 0.1 mM EDTA, 10 mM KHCO3, pH 7.4. Single cells were resuspended in FACS buffer (PBS containing 2% FBS and 2 mM EDTA) and incubated for 15 minutes with Mouse BD Fc Block purified anti-mouse CD16/CD32 mAb (BD-Pharmingen) and stained for 30 minutes at 4° C. with the following antibodies: Fixable viability dye (eFluor™ 450 or eFluor™ 506, 1:500),CD45 (PE, 1:200), TCRβ (FITC, 1:300), CD4 (PercPcy5.5, 1:400), CD8 (APC-cy7, 1:300), IFNγ (PE-cy7, 1:100), Foxp3 (APC, 1:100), TBet1 (BV421, 1:50)-from BD Biosciences. Cells were subsequently washed and resuspended in FACS buffer before FACS analysis by a FACS Canto II (BD Biosciences). Data was analyzed by Flowio (TreeStar).
In general terms: A flow cytometer gives signals particle by particle.

With `O=S(=O)(O)c1cc(N=C=S)ccc1C=Cc1ccc(N=C=S)cc1S(=O)(=O)O` [DIDS, 4,4′-diisothiocyano-2,2′-stilbenedisulfonic acid], in experiment [1] (Slc4a4-KD orthotopic KPC tumors), the “tumor reduction upon treatment” value is “no differences in tumor reduction”. In addition, the tumor growth entry in experiment [1] (wild-type (control, NT) orthotopic KPC tumors) was “reduction in tumor growth”. Moreover, in experiment [2], the “CD8+ T cells infiltration” value is “increase”, the “CD8+/CD4+ T cell ratio” value was “increase”, the “IFNγ expression of CD8+ T cells” value was “increase” and the “number of CD4+ T cells” value is reported as “no differences”. Also, the “number of Treg” value in experiment [2] was “no differences”.
